Experimental data taken from patent US20010055755A1, “Dendritic marker-expressing macrophage cultures and methods for reactivating latent HCMV” (priority 1997, published 2001).

System: HCMV
Experiment: HCMV infection of monocyte-derived dendritic cells with cytokine treatment
Type: cell-based
Settings: up to day 12 post stimulation, compared with unstimulated cells
Procedure: PBMC were isolated as described above and plated onto primaria plates for monocyte adherence. After two hours of culture, non-adherent cells were removed by three washes in serum free medium and adherent cells were stimulated with I1-4 (1000 U/ml) and GM-CSF (50 ng/ml) as previously described (Sallusto et al., J. Exp. Med. 179:1109-1118 (1994)). Immature dendritic cells cultured in RPMI medium containing 1% sodium pyruvate were developed during the first 12 days of culture. Cell samples were collected at 12 days for flow cytometric analysis to determine the expression of dendritic and macrophage markers. Small, round dendritic cells were stimulated with […] (10 ng/ml) and IFN-γ (500 U/ml) for two days. Thereafter, the mature, adherent dendritic cells were challenged with HCMV at a MOI of 10 or mock infected as described herein.
PBMC were cultured under standard conditions with IL-4 and GM-CSF to yield monocyte-derived dendritic cells (see, e.g., Annals Surg. 226:1-5 (1997)). The dendritic cells were infected in vitro under the conditions described herein with HCMV. […] Viral growth is measured as described with antibodies against viral proteins IE and gB. Viral growth is measured at days 1, 3, 8, 12, and 20 post infection.

IFN-γ: cytokine used at 500 U/ml to stimulate dendritic cells
viral expression in MDDC after additional stimulation: did not increase viral expression
